Data taken from EP4428122A1, “SORTILINE MODULATORS” (Vesper Bio Aps, priority 2023, dated 2024).

Experiments:
h-Sortilin = target: T1, h-Sortilin (Homo sapiens, UniProt Q99523); experiment: Neurotensin scintillation proximity assay (SPA), displacement of [3H]-neurotensin binding; conditions: 150 nM 6his-Sortilin, 5 nM [3H]-Neurotensin, 8 concentrations, average of at least 2 determinations
T1 sequence (Q99523 78-831): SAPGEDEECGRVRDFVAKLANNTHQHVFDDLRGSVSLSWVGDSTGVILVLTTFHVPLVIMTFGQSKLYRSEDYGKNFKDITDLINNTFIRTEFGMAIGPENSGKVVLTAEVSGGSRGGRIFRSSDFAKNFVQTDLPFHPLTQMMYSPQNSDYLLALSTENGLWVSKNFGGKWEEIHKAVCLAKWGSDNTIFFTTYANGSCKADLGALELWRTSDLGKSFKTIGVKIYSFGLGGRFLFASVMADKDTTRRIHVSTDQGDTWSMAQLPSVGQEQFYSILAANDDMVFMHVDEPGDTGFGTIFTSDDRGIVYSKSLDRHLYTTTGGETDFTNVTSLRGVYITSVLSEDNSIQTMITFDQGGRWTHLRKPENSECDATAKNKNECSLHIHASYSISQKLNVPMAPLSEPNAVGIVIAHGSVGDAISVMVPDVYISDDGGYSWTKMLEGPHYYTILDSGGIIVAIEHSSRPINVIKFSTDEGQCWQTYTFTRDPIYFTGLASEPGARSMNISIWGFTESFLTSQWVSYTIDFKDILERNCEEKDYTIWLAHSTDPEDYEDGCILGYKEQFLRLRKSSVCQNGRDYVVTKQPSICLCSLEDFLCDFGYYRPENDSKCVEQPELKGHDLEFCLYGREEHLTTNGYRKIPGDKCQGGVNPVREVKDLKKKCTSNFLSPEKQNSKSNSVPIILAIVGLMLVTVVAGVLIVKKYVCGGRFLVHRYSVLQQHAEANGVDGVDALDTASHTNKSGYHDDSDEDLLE
Experimental: The exemplified compounds of the invention were tested in a Neurotensin (NTS) scintillation proximity assay (SPA). NTS, which is a 13 amino acid neuropeptide, is a sortilin ligand. The IC50 is a measure of the amount of the compound required to inhibit the binding of NTS to sortilin by 50%. The skilled person will recognise that the lower the IC50 value, the less of the compound needed to achieve the desired effect, and as a result, the chances of undesirable off-target effects are reduced.
Compound affinity was determined by measuring the displacement of [^3H]-neurotensin binding to h-Sortilin in SPA format. Total volume of 40 µl in 50 mM HEPES pH 7.4 assay buffer containing 100 mM NaCl, 2.0 mM CaCl2, 0.1% BSA and 0.1% Tween-20. Compound pre-incubation for 30 minutes at room temperature with 150 nM of 6his-Sortilin before 5 nM [3H]-Neurotensin and Ni chelate imaging beads (Perkin Elmer) were added, after 6 hours the plate was read on a ViewLux with 360 s exposure time. Dose-response evaluation of compounds was performed with 8 concentrations of drugs (covering 3 decades). IC50 values were calculated by nonlinear regression using the sigmoid concentration-response (variable slope) using CDD Vault software. All values reported are average of at least 2 determinations.

Human (6-His)Sortilin = target: T2, Human (6-His)Sortilin (Homo sapiens, UniProt Q99523); experiment: Human Sortilin GCI (Grating-Coupled Interferometry) binding assay; conditions: Creoptix WAVE-RAPID, single concentration, immobilised Human (6-His)Sortilin, 1:1 kinetic binding model; read-out: h-Sortilin GCI KD
T2 construct: purchased RnD Systems
T2 sequence (Q99523 78-831): T1 sequence (Q99523 78-831)
Experimental: The exemplified compounds of the invention were tested in a Grating-Coupled Interferometry (GCI) Sortilin binding assay. The Equilibrium dissociation constant (KD) is a measure of the propensity of a complex (i.e: a ligand and receptor) to dissociate and is used to describe the affinity of an interaction between the constituents of the complex (i.e: a ligand and receptor). The skilled person will recognise that the lower the KD value, the less of the compound needed to achieve the desired effect, and as a result, the chances of undesirable off-target effects are reduced.
Compound affinity was determined by measuring the association and dissociation of compounds to Human (6-His)Sortilin (RnD Systems) using a Creoptix Wave instrument (Creoptix - Malvern Panalytical). Both Human (6-His)Sortilin immobilisation and compound evaluation were performed in HBS-N running buffer: 10 mM HEPES pH 7.4, 150 mM NaCl, 1 % DMSO - Cytiva which was filtered and degassed for 15 minutes before use.
A 4PCH WAVEchip (Creoptix - Malvern Panalytical) was conditioned prior to immobilisiation using 0.2x HBS-N running buffer with 0.1 M Borate pH 9.0, 1 M NaCl (Xantec Bioanalytics) injected across all flow cells. A buffer exchange was performed to 1x HBS-N running buffer and Human (6-His)Sortilin was immobililised in pH 5.0 Acetate solution (Cytiva) via amine coupling following EDC/NHS (Cytiva) surface activation and then passivated via injection of 50 mM Tris pH 7.4.
Compounds were tested in 'WAVE-RAPID' assays at a single concentration (usually: 1 µM, 10 µM or 100 µM) in time-response format (short pulses of increasing duration) using either 'Weak-Binders' (Settings: 400 µl/min flow rate, 40 Hz acquisiton rate, 5 seconds association time and 20 seconds dissociation time) or 'Intermediate Binders' (Settings: 100 µl/min flow rate, 10 Hz acquisiton rate, 25 seconds association time and 300 seconds dissociation time) settings. Which was deemed most appropriate was based upon the affinity and kinetics of the compound tested.
DMSO calibration was performed as per manufacturers requirements by injection of running buffer containing DMSO 0.5% above that of the running buffer DMSO (1.5 % in that instance) every 20 cycles. All data was double referenced (blank and reference-channel subtracted) with KD values calculated by fitting to a `1:1 kinetic' binding model using 'WAVEcontrol' software (Creoptix - Malvern Panalytical).

| SMILES | IC50 (h-Sortilin) | Kd (Human (6-His)Sortilin) |
| --- | --- | --- |
| CC(C)(C)CCC(C)(NCc1ccc2c(c1)CCC2)C(=O)O (racemic) [Example 4, 2-{[(5-indanyl)methyl]amino}-2,5,5-trimethylhexanoic acid] | 1070 nM |  |
| CC(C)(C)CCC(C)(NCc1ccc2c(c1)OCCC2)C(=O)O (racemic) [Example 5, 2-{[(7-chromanyl)methyl]amino}-2,5,5-trimethylhexanoic acid] |  | 713 nM |
| CC(C)(C)CCC(C)(NCc1ccc2c(c1)CCCC2)C(=O)O (stereo not drawn) [Example 1, 2,5,5-trimethyl-2-(((5,6,7,8-tetrahydronaphthalen-2-yl)methyl)amino)hexanoic acid] | 740 nM | 304 nM |
| CC(C)(C)CC[C@](C)(NCc1ccc2c(c1)CCCC2)C(=O)O [Example 2, (S)-2,5,5-trimethyl-2-(((5,6,7,8-tetrahydronaphthalen-2-yl)methyl)amino)hexanoic acid] | 440 nM | 79 nM |

The remaining lines, values ahead:

| IC50 (h-Sortilin) | Kd (Human (6-His)Sortilin) | SMILES |
| --- | --- | --- |
|  | 760 nM | CC(C)(C)CCC(C)(NCc1ccc2c(c1)CCCO2)C(=O)O (racemic) [Example 6, 2-{[(6-chromanyl)methyl]amino}-2,5,5-trimethylhexanoic acid] |
|  | 509 nM | CC(C)(C)CCC(C)(NCc1ccc2c(c1)CCOC2)C(=O)O (racemic) [Example 7, 2-{[(6-isochromanyl)methyl]amino}-2,5,5-trimethylhexanoic acid] |
|  | 587 nM | CC(C)(C)CCC(C)(NCc1ccc2c(c1)COCC2)C(=O)O (racemic) [Example 8, 2-{[(7-isochromanyl)methyl]amino}-2,5,5-trimethylhexanoic acid] |
